# Assay results from paper PMC4785065 (Bioorganic & medicinal chemistry letters, 2016).
# Target: human topoisomerase IIα (Homo sapiens, UniProt P11388)
# Assay: DNA cleavage inhibition assay
# Format: biochemical
# human topoisomerase IIα, sequence (P11388 whole entry): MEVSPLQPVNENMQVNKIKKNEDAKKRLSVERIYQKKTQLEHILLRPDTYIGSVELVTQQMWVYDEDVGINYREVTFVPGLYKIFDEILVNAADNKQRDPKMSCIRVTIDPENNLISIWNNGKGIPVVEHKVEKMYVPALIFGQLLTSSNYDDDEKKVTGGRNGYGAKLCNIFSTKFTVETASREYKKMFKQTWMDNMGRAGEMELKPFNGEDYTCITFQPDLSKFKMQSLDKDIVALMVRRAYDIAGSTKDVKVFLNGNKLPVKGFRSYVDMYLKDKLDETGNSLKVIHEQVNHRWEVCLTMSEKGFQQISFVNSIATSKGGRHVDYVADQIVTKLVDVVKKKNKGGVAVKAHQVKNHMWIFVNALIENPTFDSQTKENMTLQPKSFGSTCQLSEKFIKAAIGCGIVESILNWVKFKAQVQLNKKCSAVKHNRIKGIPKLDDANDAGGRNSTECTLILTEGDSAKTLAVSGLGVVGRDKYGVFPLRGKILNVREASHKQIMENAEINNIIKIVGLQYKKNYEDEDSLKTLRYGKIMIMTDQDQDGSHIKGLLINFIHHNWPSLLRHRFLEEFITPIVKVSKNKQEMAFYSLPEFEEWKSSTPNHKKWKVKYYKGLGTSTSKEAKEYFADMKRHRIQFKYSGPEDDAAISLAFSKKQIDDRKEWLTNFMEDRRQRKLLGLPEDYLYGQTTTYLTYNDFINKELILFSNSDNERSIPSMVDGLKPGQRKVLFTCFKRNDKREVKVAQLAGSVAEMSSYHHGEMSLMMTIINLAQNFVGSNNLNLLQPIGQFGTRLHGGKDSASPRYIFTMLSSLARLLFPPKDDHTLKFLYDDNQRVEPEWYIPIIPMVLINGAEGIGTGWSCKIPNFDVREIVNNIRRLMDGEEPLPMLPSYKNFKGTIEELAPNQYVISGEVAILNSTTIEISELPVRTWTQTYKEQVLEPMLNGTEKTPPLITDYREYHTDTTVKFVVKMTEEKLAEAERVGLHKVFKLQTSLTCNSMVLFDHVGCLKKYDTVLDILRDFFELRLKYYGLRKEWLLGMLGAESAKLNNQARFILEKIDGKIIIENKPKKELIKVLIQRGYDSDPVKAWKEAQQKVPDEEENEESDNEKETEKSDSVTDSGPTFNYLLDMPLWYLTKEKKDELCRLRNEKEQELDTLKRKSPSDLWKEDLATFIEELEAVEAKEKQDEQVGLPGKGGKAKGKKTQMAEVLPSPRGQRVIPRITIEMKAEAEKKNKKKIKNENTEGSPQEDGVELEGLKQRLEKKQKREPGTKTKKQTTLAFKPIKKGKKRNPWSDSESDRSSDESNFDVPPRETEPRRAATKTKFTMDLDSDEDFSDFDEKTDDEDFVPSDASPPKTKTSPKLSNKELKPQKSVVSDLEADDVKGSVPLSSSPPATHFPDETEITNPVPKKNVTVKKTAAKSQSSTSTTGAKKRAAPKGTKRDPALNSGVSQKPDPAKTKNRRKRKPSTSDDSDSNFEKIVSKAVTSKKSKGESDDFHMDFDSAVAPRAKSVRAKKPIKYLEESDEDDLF
smiles,measurement,value
"Cc1c2ccncc2c(C)c2c1[nH]c1ccccc12 [ET, 5,11-dimethyl-6H-pyrido[4,3-b]carbazole]",IC50,> 200 µM
